Consider 27 compounds from US12398117B2, “Heteroarylamidopyridinol derivative and pharmaceutical composition comprising same as active ingredient for prevention or treatment of autoimmune disease” (INNOVO THERAPEUTICS INC., priority 2019, dated 2025).

As usually defined, the IC50 is the concentration needed to halve the response being measured. A lower IC50 goes with greater potency in that assay.

The test system of experiment [1] is adhesion of intestinal epithelial cells (HT-29) and monocytic cells (U937) induced by IL-6. In words: Inhibition of IL-6-induced adhesion of monocytes and intestinal epithelial cells. To be noted: for inhibition at 1 µM: Homo sapiens, 3 h, test drug 1 μM, IL-6 10 ng/mL, HT-29/U937, read-out: inhibitory activity (%). In kind it is cell-based, human. The procedure:
(§1) The inhibitory activity test for intestinal epithelial cell-monocyte adhesion by IL-6 was performed using the same method as in the case of TNF-α. HT-29 cells were cultured in a 24-well plate at the density of 2×10^5 cells/cm^2, and the test drug was pretreated in a medium containing 1% FBS and 1% PS for 1 hour. Thereafter, 10 μg/mL of BCECF-AM was treated thereto and reacted at 37° C. for 30 minutes. U937 cells loaded with BCECF and IL-6 (10 ng/mL) were reacted with HT-29 cells previously treated with the test drug at 37° C. for 3 hours. Upon completion of the reaction, the medium was removed, and the culture flask was washed twice with PBS to remove non-adherent U937 cells. In the next step, the cells were lysed by treating with 0.1% Triton X-100 (0.1 M Tris) and reacted at room temperature for 30 minutes. Then, fluorescence was measured and quantified using a fluostar optima microplate reader (BMG Labtechnologies, Germany).

The test system of experiment [2] is adhesion of intestinal epithelial cells (HT-29) and monocytic cells (U937) induced by TNF-α. Kind of experiment: Inhibition of TNF-α-induced adhesion of monocytes and intestinal epithelial cells. In kind it is cell-based, human. To be noted: for inhibition at 1 µM: Homo sapiens, read-out: Inhibitory activity (%). The procedure:
as §1, with “HT-29 human colon cancer-derived” for “The inhibitory activity test for intestinal”, “cells and U937 human-derived monocytes were cultured in RPMI 1640 medium containing 10% FBS and 1% penicillin/streptomycin (PS) in a 37° C., 5% CO2 incubator. When” for “cell-monocyte adhesion by IL-6 was performed using”, “cells grew more than 80% of the bottom area of the culture flask, they were passaged at a ratio of 1:3 and used” for “same method as”, “this experiment.” for “the case of TNF-α.”, “TNF-α” for “IL-6”, “Germany) (Carvalho et al., 1996; Thapa et al., 2008).” for “Germany).”

The mark [3] stands for this setting: test drug 1 μM, TNF-α 10 ng/mL, HT-29/U937.

For the compound `Cc1nc(NC(=O)c2sc3cc(F)ccc3c2Cl)c(C)c(C)c1OC(=O)c1ccc(F)cc1` [XI-09, 6-(3-chloro-6-fluorobenzo[b]thiophene-2-carboxamido)-2,4,5-trimethylpyridin-3-yl 4-fluorobenzoate], the inhibition at 1 µM in experiment [1] is 21.2%; in experiment [2] (setting [3]) it was 3.4%.

`Cc1nc(NC(=O)c2sc3cc(F)ccc3c2Cl)c(C)c(C)c1OC(=O)C12CC3CC(CC(C3)C1)C2` [XI-16, 6-(3-chloro-6-fluorobenzo[b]thiophene-2-carboxamido)-2,4,5-trimethylpyridin-3-yl (3r,5r,7r)-adamantane-1-carboxylate]: the inhibition at 1 µM turned out to be 20.3% in experiment [1] and 29.2% in experiment [2] (setting [3]).

Turning to `Cc1nc(NC(=O)c2sc3cc(F)ccc3c2Cl)c(C)c(C)c1OCC(=O)NC1CC1` [XI-04, 3-chloro-N-(5-(2-(cyclopropylamino)-2-oxoethoxy)-3,4,6-trimethylpyridin-2-yl)-6-fluorobenzo[b]thiophene-2-carboxamide], the inhibition at 1 µM in experiment [1] came out at 6.5%; in experiment [2] (setting [3]) it was 13.9%.

As to `Cc1nc(NC(=O)c2cc3cc(F)ccc3[nH]2)c(C)c(C)c1O` [Compound X-06, 5-fluoro-N-(5-hydroxy-3,4,6-trimethylpyridin-2-yl)-1H-indole-2-carboxamide], the inhibition at 1 µM in experiment [1] came to 42.9%; in experiment [2] (setting [3]) it was 49.9%.

`COc1cccc(C(=O)Oc2c(C)nc(NC(=O)c3sc4cc(F)ccc4c3Cl)c(C)c2C)c1` [XI-10, 6-(3-chloro-6-fluorobenzo[b]thiophene-2-carboxamido)-2,4,5-trimethylpyridin-3-yl 3-methoxybenzoate]: the inhibition at 1 µM in experiment [1] worked out at 13.1%; in experiment [2] (setting [3]), 46.5%.

For the compound `Cc1nc(NC(=O)c2sc3ccccc3c2Cl)c(C)c(C)c1O` [Compound X-21, 3-chloro-N-(5-hydroxy-3,4,6-trimethylpyridin-2-yl)benzo[b]thiophene-2-carboxamide], the inhibition at 1 µM stood at 11.4% in experiment [1] and 13.4% in experiment [2] (setting [3]).

As to `Cc1nc(NC(=O)c2sc3cc(F)ccc3c2Cl)c(C)c(C)c1OC(=O)c1ccc(F)cn1` [XI-12, 6-(3-chloro-6-fluorobenzo[b]thiophene-2-carboxamido)-2,4,5-trimethylpyridin-3-yl 5-fluoropicolinate], the inhibition at 1 µM was determined as 18% in experiment [1] and 31.9% in experiment [2] (setting [3]).

In the case of `Cc1nc(NC(=O)c2sc3cc(F)ccc3c2Cl)c(C)c(C)c1OC(=O)c1ccccc1` [XI-08, 6-(3-chloro-6-fluorobenzo[b]thiophene-2-carboxamido)-2,4,5-trimethylpyridin-3-yl benzoate], the inhibition at 1 µM in experiment [1] is 6.8%; in experiment [2] (setting [3]) it was 7.7%.

As to `Cc1nc(NC(=O)c2cc3ccccc3n2C)c(C)c(C)c1O` [Compound X-02, N-(5-hydroxy-3,4,6-trimethylpyridin-2-yl)-1-methyl-1H-indole-2-carboxamide], the inhibition at 1 µM in experiment [1] was 21.1%; in experiment [2] (setting [3]) it was 29.1%.

Regarding `Cc1nc(NC(=O)c2cc3cccc(Br)c3[nH]2)c(C)c(C)c1O` [Compound X-03, 7-bromo-N-(5-hydroxy-3,4,6-trimethylpyridin-2-yl)-1H-indole-2-carboxamide], the inhibition at 1 µM in experiment [1] turned out to be 5%; in experiment [2] (setting [3]) it was 14.5%.

On to `COc1cc2cc(C(=O)Nc3nc(C)c(O)c(C)c3C)[nH]c2cc1OC` [Compound X-14, N-(5-hydroxy-3,4,6-trimethylpyridin-2-yl)-5,6-dimethoxy-1H-indole-2-carboxamide], for which the figures for the inhibition at 1 µM in experiment [1] and in experiment [2] (setting [3]) were 29.5% and 36.9%, respectively.

Consider `Cc1nc(NC(=O)c2sc3cc(F)ccc3c2Cl)c(C)c(C)c1OC(=O)c1ccc(Cl)cn1` [XI-14, 6-(3-chloro-6-fluorobenzo[b]thiophene-2-carboxamido)-2,4,5-trimethylpyridin-3-yl 5-chloropicolinate], for which the inhibition at 1 µM in experiment [1] was 26.8%; in experiment [2] (setting [3]), 38.1%.

Turning to `Cc1nc(NC(=O)c2sc3cc(F)ccc3c2Cl)c(C)c(C)c1OCC(=O)NC(C)C` [XI-03, 3-chloro-6-fluoro-N-(5-(2-(isopropylamino)-2-oxoethoxy)-3,4,6-trimethylpyridin-2-yl)benzo[b]thiophene-2-carboxamide], the values for the inhibition at 1 µM in experiment [1] and in experiment [2] (setting [3]) were 49.9% and not below 50%, respectively.

As to `Cc1nc(NC(=O)c2sc3cc(F)ccc3c2Cl)c(C)c(C)c1OCC(=O)NCc1ccccc1` [XI-06, N-(5-(2-(benzylamino)-2-oxoethoxy)-3,4,6-trimethylpyridin-2-yl)-3-chloro-6-fluorobenzo[b]thiophene-2-carboxamide], the inhibition at 1 µM in experiment [1] is 54.1%; in experiment [2] (setting [3]), not below 50%.

Consider `Cc1nc(NC(=O)c2sc3cc(F)ccc3c2Cl)c(C)c(C)c1OC(=O)c1ccc(F)nc1` [XI-13, 6-(3-chloro-6-fluorobenzo[b]thiophene-2-carboxamido)-2,4,5-trimethylpyridin-3-yl 6-fluoronicotinate], for which the figures for the inhibition at 1 µM in experiment [1] and in experiment [2] (setting [3]) were 15.2% and 20.7%, respectively.

Consider `Cc1nc(NC(=O)c2cc3ccc(Cl)cc3[nH]2)c(C)c(C)c1O` [Compound X-04, 6-chloro-N-(5-hydroxy-3,4,6-trimethylpyridin-2-yl)-1H-indole-2-carboxamide], for which the results for the inhibition at 1 µM in experiment [1] and in experiment [2] (setting [3]) were 25.1% and 30.3%, respectively.

For the compound `Cc1nc(NC(=O)c2cc3ccccc3o2)c(C)c(C)c1O` [Compound X-15, N-(5-hydroxy-3,4,6-trimethylpyridin-2-yl)benzofuran-2-carboxamide], the inhibition at 1 µM in experiment [1] was determined as 42.4%; in experiment [2] (setting [3]) it was 4.8%.

In the case of `COc1ccc2c(Cl)c(C(=O)Nc3nc(C)c(O)c(C)c3C)sc2c1` [Compound X-26, 3-chloro-N-(5-hydroxy-3,4,6-trimethylpyridin-2-yl)-6-methoxybenzo[b]thiophene-2-carboxamide], the inhibition at 1 µM came to 38.4% in experiment [1] and 45.1% in experiment [2] (setting [3]).

As for `Cc1nc(NC(=O)c2cc3cc(C(F)(F)F)ccc3[nH]2)c(C)c(C)c1O` [Compound X-10, N-(5-hydroxy-3,4,6-trimethylpyridin-2-yl)-5-(trifluoromethyl)-1H-indole-2-carboxamide], the inhibition at 1 µM was 47.9% in experiment [1] and not below 50% in experiment [2] (setting [3]).

`COc1ccc2cc(C(=O)Nc3nc(C)c(O)c(C)c3C)[nH]c2c1` [Compound X-12, N-(5-hydroxy-3,4,6-trimethylpyridin-2-yl)-6-methoxy-1H-indole-2-carboxamide]: the inhibition at 1 µM was 46% in experiment [1] and not below 50% in experiment [2] (setting [3]).

Consider `COc1ccc(C(=O)Oc2c(C)nc(NC(=O)c3sc4cc(F)ccc4c3Cl)c(C)c2C)cc1` [XI-11, 6-(3-chloro-6-fluorobenzo[b]thiophene-2-carboxamido)-2,4,5-trimethylpyridin-3-yl 4-methoxybenzoate], for which the inhibition at 1 µM in experiment [1] turned out to be 67%; in experiment [2] (setting [3]) it was 77.2%.

As to `Cc1nc(NC(=O)c2cc3cc(Br)ccc3o2)c(C)c(C)c1O` [Compound X-17, 5-bromo-N-(5-hydroxy-3,4,6-trimethylpyridin-2-yl)benzofuran-2-carboxamide], the values for the inhibition at 1 µM in experiment [1] and in experiment [2] (setting [3]) were 3.6% and 8.5%, respectively.

As for `Cc1nc(NC(=O)c2cc3ccccc3s2)c(C)c(C)c1O` [Compound X-20, N-(5-hydroxy-3,4,6-trimethylpyridin-2-yl)benzo[b]thiophene-2-carboxamide], the inhibition at 1 µM in experiment [1] was 27%; in experiment [2] (setting [3]), 16.5%.

With `COc1c(C)nc(N(C)C(=O)c2sc3cc(F)ccc3c2Cl)c(C)c1C` [XI-02, 3-chloro-6-fluoro-N-(5-methoxy-3,4,6-trimethylpyridin-2-yl)-N-methylbenzo[b]thiophene-2-carboxamide], the inhibition at 1 µM in experiment [1] came out at 10.9%; in experiment [2] (setting [3]), 18.5%.

For `Nc1ccc(O)c(C(=O)O)c1` [Compound 5-ASA, 5-ASA, reference compound], the half-inhibitory concentration (IC50) in experiment [1] (inhibition of adhesion by IL-6) worked out at 25.1 mM; in experiment [2] (inhibition of adhesion by TNF-α), 18.1 mM. Besides, the “Inhibitory activity (%)” value in experiment [2] (setting [3]) is recorded as 3.8%.

As to `Cc1nc(NC(=O)c2cc3ccccc3[nH]2)c(C)c(C)c1O` [Compound X-01, N-(5-hydroxy-3,4,6-trimethylpyridin-2-yl)-1H-indole-2-carboxamide], the inhibition at 1 µM in experiment [1] stood at 34%; in experiment [2] (setting [3]) it was 43.2%.

Take `COc1ccc2[nH]c(C(=O)Nc3nc(C)c(O)c(C)c3C)cc2c1` [Compound X-13, N-(5-hydroxy-3,4,6-trimethylpyridin-2-yl)-5-methoxy-1H-indole-2-carboxamide]: the results for the inhibition at 1 µM in experiment [1] and in experiment [2] (setting [3]) were 23.4% and 36.7%, respectively.
